According to patent US12698289B2, “Solid forms of pharmaceutically acceptable salts of (S)-(2-ethyl-5-fluoro-4-hydroxyphenyl)-1H-indazol-3-yl)-4,6-dihydropyrrolo[3,4-d]imidazol-5(1H)-yl)(3-hydroxypyrrolidin-1-yl)methanone as JAK inhibitors” (HENAN MEDINNO PHARMACEUTICAL TECHNOLOGY CO., LTD., priority 2019, dated 2026):

System: human T cells
Experiment: IL-2 induced human T cell proliferation assay (Celltiter Glo)
Conditions: HT, 72 h, read-out: IC50 (nM), human T cell proliferation
From the text: The purpose of this example is to assay the activity of the compound in the JAK cell activity assay-human T cell proliferation assay.

With `CCc1cc(O)c(F)cc1-c1ccc2c(-c3nc4c([nH]3)CN(C(=O)N3CC[C@H](O)C3)C4)n[nH]c2c1` [Compound of formula (I), (S)-(2-(6-(2-ethyl-5-fluoro-4-hydroxyphenyl)-1H-indazol-3-yl)-4,6-dihydropyrrolo[3,4-d]imidazol-5-(1H)-yl) (3-hydroxy pyrrolidin-1-yl) ketone] the IC50 was 13 nM.
